Assay results published in US20240199635A1, “TETRAHYDROTHIENO PYRIDINE DERIVATIVES AS DDRS INHIBITORS” (CHIESI FARMACEUTICI S.P.A., priority 2021, published 2024).
pIC50, pKi: −log10 of the molar value.

Assays:
[1] = molecular target: T1, DDR1 (Homo sapiens (Human), UniProt Q08345); test: DDR1 cell based assay (PathHunter U2OS DDR1 assay); conditions: U2OS-DDR1 cells, Type II Collagen stimulation, potency class
Protocol: The inhibition of DDR1 receptor activation by compounds was evaluated by PathHunter® U2OS DDR1 assay (Eurofins DiscoverX), according to the manufacturer's instructions. Briefly, U2OS-DDR1 cells were seeded in white 384-well plates at a density of 5000 cells/well and incubated for 2 hours at 37° C. and 5% CO2. Cells were then treated with compounds at different concentrations and incubated for 30 minutes, before stimulation with bovine Type II Collagen 20 μg/ml and incubation overnight at 37° C. and 5% CO2. PathHunter Detection Reagents were prepared according to the protocol provided by DiscoverX and 20 μl/well of this mix were added to each well. After incubating the plates for 1 hour at room temperature in the dark, luminescence signal was acquired with a plate reader. Raw data were normalized to vehicle control (0% for normalization) and positive control (100% for normalization; cells treated with 20 μg/ml collagen II) and IC50 parameters were calculated in GraphPad Prism 8.0 software, using sigmoidal dose-response curve fitting with variable slope.

[2] = molecular target: DDR2 (Homo sapiens (Human), UniProt Q16832); test: DDR2 binding assay (LanthaScreen Europium Kinase Binding assay); conditions: potency class, read-out: Ki DDR2
DDR2, sequence (Q16832 22-855): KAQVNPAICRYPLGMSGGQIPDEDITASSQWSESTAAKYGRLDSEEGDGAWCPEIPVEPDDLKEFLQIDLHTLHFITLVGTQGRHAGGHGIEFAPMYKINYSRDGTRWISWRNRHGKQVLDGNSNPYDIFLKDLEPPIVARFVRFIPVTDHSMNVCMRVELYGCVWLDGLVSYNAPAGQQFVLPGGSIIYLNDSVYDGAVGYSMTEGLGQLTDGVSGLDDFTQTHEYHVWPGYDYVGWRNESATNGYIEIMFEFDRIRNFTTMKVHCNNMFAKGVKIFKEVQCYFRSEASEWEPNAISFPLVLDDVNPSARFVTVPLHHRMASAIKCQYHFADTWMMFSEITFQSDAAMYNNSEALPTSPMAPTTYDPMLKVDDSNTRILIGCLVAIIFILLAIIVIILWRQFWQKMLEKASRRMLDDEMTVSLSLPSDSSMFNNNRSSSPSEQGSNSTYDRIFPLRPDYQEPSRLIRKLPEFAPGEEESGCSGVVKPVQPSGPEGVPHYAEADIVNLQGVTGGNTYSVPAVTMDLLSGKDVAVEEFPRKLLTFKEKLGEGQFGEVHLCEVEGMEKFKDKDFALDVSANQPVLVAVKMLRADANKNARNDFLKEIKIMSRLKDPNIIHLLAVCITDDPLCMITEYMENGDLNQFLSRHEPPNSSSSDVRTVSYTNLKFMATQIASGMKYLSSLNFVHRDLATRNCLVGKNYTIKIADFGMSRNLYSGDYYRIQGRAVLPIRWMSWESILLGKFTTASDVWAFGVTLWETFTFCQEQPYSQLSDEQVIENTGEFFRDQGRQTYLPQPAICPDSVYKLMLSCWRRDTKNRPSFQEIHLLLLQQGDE
Protocol: (§1) DDR1 and DDR2 binding assays were performed using Life Technologies LanthaScreen™ Europium Kinase Binding assay. The compounds were incubated with 5 nM DDR1 (Carna Biosciences) or 5 nM DDR2 (Life Technologies) for 1 hour at room temperature in white 384-well OptiPlate (PerkinElmer), containing 20 nM or 10 nM Kinase Tracer 178 respectively and 2 nM Europium labelled anti-GST antibody (Life Technologies) in assay buffer (50 mM HEPES pH 7.5, 10 mM MgCl2, 1 mM EGTA and 0.01% BRIJ35).
(§2) The ratio of fluorescence emission 665 nm/615 nm after excitation at 340 nm was obtained using the Tecan Spark 20M plate reader. IC50 values were determined in GraphPad Prism 7.0 software, using 4 parameter model: log(inhibitor) vs. response. IC50 values were converted in Ki using the Cheng-Prusoff equation (Ki=IC50/(1+[Tracer]/Kd).

[3] = molecular target: T1, DDR1; test: DDR1 binding assay (LanthaScreen Europium Kinase Binding assay); conditions: potency class, read-out: Ki DDR1
Protocol: as §1, §2

T1 sequence (Q08345 19-913): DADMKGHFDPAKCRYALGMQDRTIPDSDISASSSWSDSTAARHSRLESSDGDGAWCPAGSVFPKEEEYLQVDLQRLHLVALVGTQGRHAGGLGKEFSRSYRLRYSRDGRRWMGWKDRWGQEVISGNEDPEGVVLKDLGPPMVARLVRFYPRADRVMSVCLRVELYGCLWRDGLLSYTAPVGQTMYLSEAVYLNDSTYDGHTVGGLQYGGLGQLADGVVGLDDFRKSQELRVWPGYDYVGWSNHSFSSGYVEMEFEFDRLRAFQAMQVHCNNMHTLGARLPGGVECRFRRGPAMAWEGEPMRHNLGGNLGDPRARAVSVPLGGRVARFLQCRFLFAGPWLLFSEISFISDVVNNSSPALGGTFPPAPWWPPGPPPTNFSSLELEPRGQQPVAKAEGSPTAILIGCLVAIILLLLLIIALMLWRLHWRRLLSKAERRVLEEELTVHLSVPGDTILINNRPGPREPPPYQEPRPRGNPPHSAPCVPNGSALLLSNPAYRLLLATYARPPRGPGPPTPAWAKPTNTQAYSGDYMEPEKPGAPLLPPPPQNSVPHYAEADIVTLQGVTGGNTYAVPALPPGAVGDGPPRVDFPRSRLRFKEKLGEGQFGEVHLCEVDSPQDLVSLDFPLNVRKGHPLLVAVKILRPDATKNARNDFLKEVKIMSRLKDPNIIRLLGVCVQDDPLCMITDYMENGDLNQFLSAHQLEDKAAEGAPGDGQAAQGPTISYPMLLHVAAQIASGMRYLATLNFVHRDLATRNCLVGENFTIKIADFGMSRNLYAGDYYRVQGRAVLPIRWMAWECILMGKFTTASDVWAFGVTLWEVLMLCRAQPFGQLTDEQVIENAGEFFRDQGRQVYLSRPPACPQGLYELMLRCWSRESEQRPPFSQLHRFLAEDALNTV

SMILES	pIC50 [1]	pKi [2]	pKi [3]
Nc1ncc(CN2CCc3c(C(=O)Nc4cncc(C(F)(F)F)c4)csc3C2)cn1 [Example 35, 6-((2-aminopyrimidin-5-yl)methyl)-N-(5-(trifluoromethyl)pyridin-3-yl)-4,5,6,7-tetrahydrothieno[2,3-c]pyridine-3-carboxamide]	7.10 to 7.30	7.30 to 7.60	> 7.60
CC(F)(F)c1cccc(NC(=O)c2csc3c2CCN(Cc2cncnc2)C3)c1 [Example 9, N-(3-(1,1-difluoroethyl)phenyl)-6-(pyrimidin-5-ylmethyl)-4,5,6,7-tetrahydrothieno[2,3-c]pyridine-3-carboxamide]	7.10 to 7.30	> 7.60	> 7.60
CC(C)(c1cc(NC(=O)c2csc3c2CCN(Cc2cncnc2)C3)no1)C(F)(F)F [Example 6, 6-(pyrimidin-5-ylmethyl)-N-(5-(1,1,1-trifluoro-2-methylpropan-2-yl)isoxazol-3-yl)-4,5,6,7-tetrahydrothieno[2,3-c]pyridine-3-carboxamide]	7.30 to 7.60	> 7.60	> 7.60
O=C(Nc1cc(C(F)(F)F)ccc1F)c1csc2c1CCN(Cc1cncnc1)C2 [Example 11, N-(2-fluoro-5-(trifluoromethyl)phenyl)-6-(pyrimidin-5-ylmethyl)-4,5,6,7-tetrahydrothieno[2,3-c]pyridine-3-carboxamide]	7.10 to 7.30	> 7.60	> 7.60
CN(C)Cc1ccc(NC(=O)c2csc3c2CCN(Cc2cnc(N)nc2)C3)cc1C(F)(F)F [Example 56, 6-((2-aminopyrimidin-5-yl)methyl)-N-(4-((dimethylamino)methyl)-3-(trifluoromethyl)phenyl)-4,5,6,7-tetrahydrothieno[2,3-c]pyridine-3-carboxamide]	7.30 to 7.60	7.30 to 7.60	> 7.60
CN(C)[C@@H]1CCN(Cc2cc(NC(=O)c3csc4c3CCN(Cc3cncnc3C(C)(C)F)C4)cc(C(F)(F)F)c2)C1 [Example 51, (R)-N-(3-((3-(dimethylamino)pyrrolidin-1-yl)methyl)-5-(trifluoromethyl)phenyl)-6-((4-(2-fluoropropan-2-yl)pyrimidin-5-yl)methyl)-4,5,6,7-tetrahydrothieno[2,3-c]pyridine-3-carboxamide]	7.10 to 7.30	7.30 to 7.60	> 7.60
COCCNc1ncc(CN2CCc3c(C(=O)Nc4cc(F)cc(C(F)(F)F)c4)csc3C2)cn1 [Example 41, N-(3-fluoro-5-(trifluoromethyl)phenyl)-6-((2-((2-methoxyethyl)amino)pyrimidin-5-yl)methyl)-4,5,6,7-tetrahydrothieno[2,3-c]pyridine-3-carboxamide]	7.10 to 7.30	> 7.60	> 7.60
COc1ncncc1CN1CCc2c(C(=O)Nc3cc(CN4CC[C@@H](N(C)C)C4)cc(C(F)(F)F)c3)csc2C1 [Example 52, (R)-N-(3-((3-(dimethylamino)pyrrolidin-1-yl)methyl)-5-(trifluoromethyl)phenyl)-6-((4-methoxypyrimidin-5-yl)methyl)-4,5,6,7-tetrahydrothieno[2,3-c]pyridine-3-carboxamide]	7.10 to 7.30	> 7.60	> 7.60
O=C(Nc1cccc(OC(F)F)c1)c1csc2c1CCN(Cc1cncnc1)C2 [Example 13, N-(3-(difluoromethoxy)phenyl)-6-(pyrimidin-5-ylmethyl)-4,5,6,7-tetrahydrothieno[2,3-c]pyridine-3-carboxamide]	7.10 to 7.30	> 7.60	> 7.60
CN(C)Cc1cc(NC(=O)c2csc3c2CCN(Cc2cnc(N)nc2)C3)cc(C(F)(F)F)n1 [Example 57, 6-((2-aminopyrimidin-5-yl)methyl)-N-(2-((dimethylamino)methyl)-6-(trifluoromethyl)pyridin-4-yl)-4,5,6,7-tetrahydrothieno[2,3-c]pyridine-3-carboxamide]	7.30 to 7.60	7.30 to 7.60	> 7.60
Cn1nc(C(C)(C)C)cc1NC(=O)c1csc2c1CCN(Cc1cnc(N)nc1)C2 [Example 26, 6-((2-aminopyrimidin-5-yl)methyl)-N-(3-(tert-butyl)-1-methyl-1H-pyrazol-5-yl)-4,5,6,7-tetrahydrothieno[2,3-c]pyridine-3-carboxamide]	7.30 to 7.60	7.30 to 7.60	> 7.60

The remaining lines, values ahead:

pIC50 [1]	pKi [2]	pKi [3]	SMILES
7.30 to 7.60	> 7.60	> 7.60	O=C(Nc1cccc(C(F)(F)F)c1)c1csc2c1CCN(Cc1cccnc1)C2 [Example 25, 6-(pyridin-3-ylmethyl)-N-(3-(trifluoromethyl)phenyl)-4,5,6,7-tetrahydrothieno[2,3-c]pyridine-3-carboxamide]
> 7.60	> 7.60	> 7.60	O=C(Nc1ccc(F)c(OC(F)(F)F)c1)c1csc2c1CCN(Cc1cncnc1)C2 [Example 10, N-(4-fluoro-3-(trifluoromethoxy)phenyl)-6-(pyrimidin-5-ylmethyl)-4,5,6,7-tetrahydrothieno[2,3-c]pyridine-3-carboxamide]
7.30 to 7.60	> 7.60	> 7.60	N#Cc1cncc(CN2CCc3c(C(=O)Nc4cccc(C(F)(F)F)c4)csc3C2)c1 [Example 19, 6-((5-cyanopyridin-3-yl)methyl)-N-(3-(trifluoromethyl)phenyl)-4,5,6,7-tetrahydrothieno[2,3-c]pyridine-3-carboxamide]
> 7.60	> 7.60	> 7.60	Nc1ncc(CN2CCc3c(C(=O)Nc4ccc(Cl)c(C(F)(F)F)c4)csc3C2)cn1 [Example 61, 6-((2-aminopyrimidin-5-yl)methyl)-N-(4-chloro-3-(trifluoromethyl)phenyl)-4,5,6,7-tetrahydrothieno[2,3-c]pyridine-3-carboxamide]
> 7.60	> 7.60	> 7.60	COc1cncc(CN2CCc3c(C(=O)Nc4cncc(C(F)(F)F)c4)csc3C2)c1 [Example 32, 6-((5-methoxypyridin-3-yl)methyl)-N-(5-(trifluoromethyl)pyridin-3-yl)-4,5,6,7-tetrahydrothieno[2,3-c]pyridine-3-carboxamide]
> 7.60	> 7.60	> 7.60	CNc1ncc(CN2CCc3c(C(=O)Nc4cc(F)cc(C(F)(F)F)c4)csc3C2)cn1 [Example 40, N-(3-fluoro-5-(trifluoromethyl)phenyl)-6-((2-(methylamino)pyrimidin-5-yl)methyl)-4,5,6,7-tetrahydrothieno[2,3-c]pyridine-3-carboxamide]
> 7.60	> 7.60	> 7.60	O=C(Nc1cc(F)cc(OC(F)(F)F)c1)c1csc2c1CCN(Cc1cncnc1)C2 [Example 7, N-(3-fluoro-5-(trifluoromethoxy)phenyl)-6-(pyrimidin-5-ylmethyl)-4,5,6,7-tetrahydrothieno[2,3-c]pyridine-3-carboxamide]
> 7.60	> 7.60	> 7.60	CNc1ccc(CN2CCc3c(C(=O)Nc4cc(F)cc(C(F)(F)F)c4)csc3C2)cn1 [Example 48, N-[3-fluoro-5-(trifluoromethyl)phenyl]-6-[[6-(methylamino)-3-pyridyl]methyl]-5,7-dihydro-4H-thieno[2,3-c]pyridine-3-carboxamide]
> 7.60	> 7.60	> 7.60	Cn1cncc1C(=O)N1CCc2c(C(=O)Nc3cc(F)cc(C(F)(F)F)c3)csc2C1 [Example 49, N-(3-fluoro-5-(trifluoromethyl)phenyl)-6-(1-methyl-1H-imidazole-5-carbonyl)-4,5,6,7-tetrahydrothieno[2,3-c]pyridine-3-carboxamide]
